Columns and labels:
SpCas9 = SpCas9 (Streptococcus pyogenes serotype M1, UniProt Q99ZW2); test: Strand displacement assay (SDA) / cumulative activity assay (CAA), SpCas9 primary screen; assay type: biochemical; details: Primary Screen (150 min); for Normalized Z score 1: replicate 1; for Normalized Z score 2: replicate 2
Experimental: Screening of inhibitors was via a high throughput pipeline, as depicted in FIG. 29. The first screening is via a strand displacement assay (SDA) for detecting nuclease activity (FIG. 27A, 28A). The Cpf1/Cas12 protein/DNA complex has a different structure from Cas9 and requires optimization of the potential fluorophore attachment sites (Yamano, T et al., Cell, 2016). (FIG. 28A). Next screened compounds are evaluated in an eGFP cell assay, and for eGFP dose. Those compounds are further narrowed via a HiBiT assay and finally evaluated in the surveyor assay. SAR evaluations are performed to arrive at lead compounds for further evaluations and variations. General methodology for the assays is as described in at [0253]-[0301] of U.S. Patent Application 62/831,143 filed Apr. 8, 2019, incorporated herein by reference.
The 3′ end of the displacing single-stranded DNA was labeled with a quencher. Following nuclease cleavage of the substrate, the 3′-labeled quenching DNA strand (present in excess) could outcompete the weakly held 3′ strand to anneal to the 5′ strand. The resulting FRET fluorescence quenching provides an optical readout for nuclease activity (FIG. 62A).
Typically, SpCas9: gRNA (1:1.2 ratio) RNP was pre-formed at 1 μM in Cas9 assay buffer (20 mM Tris-HCl, pH=7.5, 100 mM KCl, 5 mM MgCl2) for 5 min at 4° C. before diluting to 10 nM in Cas9 assay buffer (2× final concentration). 25 μL of the Cas9 2× stock was manually dispensed to a black 384-well plate (Corning 3575) using electronic pipette. […] Following this, pre-annealed Alexa-Fluor 647 labeled substrate and quencher were also diluted to 1 nM and 5 nM in Cas9 assay buffer, respectively (2× stock solution). Next, 25 μL of the substrate/quencher solution was added manually to each well of the Cas9-containing 384-well plates using an electronic pipette and was incubated at 37° C. for 2.5 h. Fluorescent signals were read with the microplate reader set to read Alexa-Fluor 647 fluorescence. Assay was performed similarly with SaCas9 and FnCas12a using the respective enzyme, gRNA, substrate, and quencher oligos. […]

SaCas9 = biological target: T1, SaCas9 (Staphylococcus aureus, UniProt J7RUA5); test: Strand displacement assay, SaCas9 primary screen; assay type: biochemical; details: for Auto Zscore Rep 1 / Auto Zscore Rep 2 / Normalized Zscore Rep 1 / Normalized Zscore Rep 2: SaCas9 primary screen; for Auto Zscore Rep 1 / Normalized Zscore Rep 1: replicate 1; for Auto Zscore Rep 2 / Normalized Zscore Rep 2: replicate 2; for Normalized Zscore Rep 1 / Normalized Zscore Rep 2: weaker potential hits; for 3 sigma Hit: flag 1 = hit at 3 sigma; for 5 sigma Hit: flag 1 = hit at 5 sigma
T1 sequence (J7RUA5 1-1053): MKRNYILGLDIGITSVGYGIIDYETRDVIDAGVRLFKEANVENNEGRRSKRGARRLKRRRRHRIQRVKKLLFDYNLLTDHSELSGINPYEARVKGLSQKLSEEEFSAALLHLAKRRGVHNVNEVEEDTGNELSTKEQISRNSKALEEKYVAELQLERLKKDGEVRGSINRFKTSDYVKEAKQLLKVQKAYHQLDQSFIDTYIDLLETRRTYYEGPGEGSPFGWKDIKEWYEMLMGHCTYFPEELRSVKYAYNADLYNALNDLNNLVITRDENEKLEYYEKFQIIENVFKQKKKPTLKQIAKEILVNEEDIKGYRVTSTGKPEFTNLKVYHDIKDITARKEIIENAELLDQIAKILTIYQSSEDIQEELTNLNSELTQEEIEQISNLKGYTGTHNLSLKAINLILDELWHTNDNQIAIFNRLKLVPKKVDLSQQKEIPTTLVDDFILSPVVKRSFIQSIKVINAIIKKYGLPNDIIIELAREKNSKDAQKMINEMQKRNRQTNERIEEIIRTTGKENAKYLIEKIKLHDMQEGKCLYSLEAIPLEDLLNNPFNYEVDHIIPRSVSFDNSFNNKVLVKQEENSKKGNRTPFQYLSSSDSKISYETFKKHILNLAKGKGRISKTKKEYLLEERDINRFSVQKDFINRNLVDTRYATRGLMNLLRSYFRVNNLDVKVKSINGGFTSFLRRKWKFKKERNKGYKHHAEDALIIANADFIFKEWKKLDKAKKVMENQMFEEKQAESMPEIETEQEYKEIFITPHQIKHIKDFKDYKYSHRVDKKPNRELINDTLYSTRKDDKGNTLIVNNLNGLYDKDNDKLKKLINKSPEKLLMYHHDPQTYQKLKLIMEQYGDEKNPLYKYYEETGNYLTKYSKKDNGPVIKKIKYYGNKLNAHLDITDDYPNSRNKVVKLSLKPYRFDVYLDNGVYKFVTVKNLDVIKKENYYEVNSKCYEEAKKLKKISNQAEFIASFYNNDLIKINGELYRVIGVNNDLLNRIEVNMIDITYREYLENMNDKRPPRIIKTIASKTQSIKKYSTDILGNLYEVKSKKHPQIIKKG
Summary of the method: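 Cas9 RNP (1:1.2 protein:gRNA) pre-formed in 20 mM Tris-HCl pH 7.5, 100 mM KCl, 5 mM MgCl2, used at 10 nM (2× stock) with Alexa-Fluor 647 substrate/quencher at 1 nM/5 nM (2× stock). Reaction ran 2.5 h at 37°C; strand displacement read as fluorescence. Hits called by Z-score: 3–5σ weak, >5σ strong.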

Chain of SpCas9 (Q99ZW2 whole entry): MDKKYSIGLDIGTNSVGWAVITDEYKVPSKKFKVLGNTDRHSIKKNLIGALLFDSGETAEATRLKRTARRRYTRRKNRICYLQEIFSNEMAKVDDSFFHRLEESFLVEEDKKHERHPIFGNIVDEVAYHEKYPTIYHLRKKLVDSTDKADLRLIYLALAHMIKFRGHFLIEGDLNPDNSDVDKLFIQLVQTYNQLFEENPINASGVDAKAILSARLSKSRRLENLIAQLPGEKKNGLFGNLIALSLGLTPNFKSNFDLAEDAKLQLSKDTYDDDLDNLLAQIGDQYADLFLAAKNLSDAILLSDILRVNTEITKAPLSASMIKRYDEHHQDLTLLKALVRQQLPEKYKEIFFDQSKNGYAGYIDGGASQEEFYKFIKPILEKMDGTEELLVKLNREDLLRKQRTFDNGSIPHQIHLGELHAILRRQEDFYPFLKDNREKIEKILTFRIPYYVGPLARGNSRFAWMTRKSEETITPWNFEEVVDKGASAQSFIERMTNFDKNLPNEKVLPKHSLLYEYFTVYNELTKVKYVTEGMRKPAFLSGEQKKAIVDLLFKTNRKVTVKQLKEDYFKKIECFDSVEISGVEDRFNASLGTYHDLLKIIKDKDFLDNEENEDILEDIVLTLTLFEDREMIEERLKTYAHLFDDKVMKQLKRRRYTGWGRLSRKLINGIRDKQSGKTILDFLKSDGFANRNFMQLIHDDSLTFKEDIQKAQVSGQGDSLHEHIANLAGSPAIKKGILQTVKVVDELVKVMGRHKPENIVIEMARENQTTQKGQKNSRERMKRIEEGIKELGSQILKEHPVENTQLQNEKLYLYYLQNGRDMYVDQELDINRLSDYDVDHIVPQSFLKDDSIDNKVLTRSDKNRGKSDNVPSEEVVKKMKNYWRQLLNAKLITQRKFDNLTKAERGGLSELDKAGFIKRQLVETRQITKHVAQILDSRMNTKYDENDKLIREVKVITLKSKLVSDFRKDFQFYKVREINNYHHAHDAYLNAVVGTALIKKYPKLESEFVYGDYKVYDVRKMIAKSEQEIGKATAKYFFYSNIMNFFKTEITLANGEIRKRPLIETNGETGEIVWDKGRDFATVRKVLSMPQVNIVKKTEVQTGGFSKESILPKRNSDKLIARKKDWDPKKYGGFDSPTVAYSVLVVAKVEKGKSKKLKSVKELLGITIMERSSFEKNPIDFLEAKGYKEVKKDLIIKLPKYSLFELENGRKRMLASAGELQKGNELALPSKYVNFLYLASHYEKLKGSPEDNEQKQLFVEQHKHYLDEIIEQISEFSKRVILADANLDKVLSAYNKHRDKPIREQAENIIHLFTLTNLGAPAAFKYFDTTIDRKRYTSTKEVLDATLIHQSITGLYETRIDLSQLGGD

| Structure (SMILES) | Average Normalized Z score (SpCas9) | avg z score primary (SpCas9) | Normalized Z score 1 (SpCas9) | Normalized Z score 2 (SpCas9) | Average Normalized Z score (SpCas9; average of replicates) | Auto Zscore Rep 1 (SaCas9) | Auto Zscore Rep 2 (SaCas9) | Normalized Zscore Rep 1 (SaCas9) | Normalized Zscore Rep 2 (SaCas9) | 3 sigma Hit (SaCas9) | 5 sigma Hit (SaCas9) |
| --- | --- | --- | --- | --- | --- | --- | --- | --- | --- | --- | --- |
| COc1ccc(C(=O)Oc2cc(-c3ccc(OC)c(OC)c3)cc(=O)c3c(C)oc(C)c23)cc1 [Compound D132-0053] | 0.20 | 3.32 | 0.21 | 0.19 | – | – | – | – | – | – | – |
| CCCCC(=O)Nc1ccc(N2CCC(C(N)=O)(N3CCCCC3)CC2)c(C(=O)O)c1 [Compound G889-0171] | 0.07 | 3.38 | 0.07 | 0.07 | – | – | – | – | – | – | – |
| CN1CCN(c2ccc(CNC(=O)Cn3ccc4c(SCc5ccccc5)nccc43)cc2)CC1 [Compound M056-0617] | – | 4.82 | 0.05 | 0.07 | 0.06 | – | – | – | – | – | – |
| O=C([O-])C(O)Cc1ccc(O)c(O)c1.[Na+] (stereo not drawn) [Compound S2401] | – | 4.93 | 0.22 | 0.29 | 0.25 | – | – | – | – | – | – |
| Cl.NC(CO)C(=O)NNCc1ccc(O)c(O)c1O (stereo not drawn) [Compound S2453] | – | 5.09 | 0.21 | 0.32 | 0.26 | – | – | – | – | – | – |
| CCCN(CCC)C1=CC(=O)C(C)=C(C)C1=O [Compound T0502-3042] | – | 4.92 | 0.32 | 0.30 | 0.31 | – | – | – | – | – | – |
| CCN(Cc1ccccc1)c1ccc(NS(=O)(=O)c2c(C)cc(C)cc2C)cc1C(=O)O [Cpd F294-0002] | – | – | – | – | – | −0.1185 | 0.01199 | 0.2241 | 0.205 | 1 | 1 |
| CCN(Cc1ccccc1)c1ccc(NS(=O)(=O)c2ccccc2)cc1C(=O)O [Cpd F294-0004] | – | – | – | – | – | −1.138 | −1.139 | 0.2186 | 0.1863 | 1 | – |
| CCN(Cc1ccccc1)c1ccc(NS(=O)(=O)CC)cc1C(=O)O [Cpd F294-0006] | – | – | – | – | – | −0.2858 | −0.7265 | 0.1668 | 0.1791 | 1 | – |
| CCN(Cc1ccccc1)c1ccc(NS(C)(=O)=O)cc1C(=O)O [Cpd F294-0009] | – | – | – | – | – | 0.01198 | 0.247 | 0.1769 | 0.155 | 1 | – |
| CCN(Cc1ccccc1)c1ccc(NS(=O)(=O)c2cc(C)ccc2C)cc1C(=O)O [Cpd F294-0010] | – | – | – | – | – | −0.2001 | 1.494 | 0.1692 | 0.1845 | 1 | – |
| CCN(Cc1ccccc1)c1ccc(NS(=O)(=O)c2cc(OC)ccc2OC)cc1C(=O)O [Cpd F294-0012] | – | – | – | – | – | −1.677 | −1.264 | 0.1772 | 0.1434 | 1 | – |
| O=C(O)c1cc(NS(=O)(=O)N2CCOCC2)ccc1N1CCCC(CN2CCCC2)C1 (stereo not drawn) [Cpd F294-1002] | – | – | – | – | – | −0.7997 | −0.2997 | 0.2452 | 0.1681 | 1 | 1 |
| Cc1cccc(NC(=O)C2CCCN(c3ccc(-c4ccccc4)nn3)C2)c1 (stereo not drawn) [Cpd F305-0007] | – | – | – | – | – | −0.4204 | −0.1511 | 0.1614 | 0.1636 | 1 | – |
| COc1ccc(-c2nc(N)s[n+]2-c2ccccc2)cc1 [Cpd T0501-2049] | – | – | – | – | – | 0.5613 | 0.7691 | 0.6053 | 0.6033 | 1 | 1 |
| C=C1C(C(=O)NCc2ccco2)C1C(=O)NCc1ccco1 (stereo not drawn) [Cpd T0501-2919] | – | – | – | – | – | 0.7411 | 0.4717 | 0.507 | 0.5892 | 1 | 1 |
| O=C1c2cccc3cccc(c23)N1S(=O)(=O)c1cccs1 [Cpd T0503-3218] | – | – | – | – | – | 1.379 | 1.343 | 0.1426 | 0.123 | 1 | – |
| Cc1ccc(C)c(SCC(=O)NC(C)C(c2ccccc2)N2CCOCC2)c1 (stereo not drawn) [Cpd T0507-0044] | – | – | – | – | – | 1.662 | −1.14 | 0.2923 | 0.2417 | 1 | 1 |
| O=C(CSc1ccc2ccccc2c1)N1CCN(c2ccc(O)cc2)CC1 [Cpd T0508-7813] | – | – | – | – | – | −2.33 | −1.326 | 0.1931 | 0.165 | 1 | – |
| O=C(CSc1ccc2ccccc2c1)NCCc1ccc(O)c(O)c1 [Cpd T0509-3636] | – | – | – | – | – | 0.8861 | 0.3048 | 0.4351 | 0.3562 | 1 | 1 |
| Cc1ccc(C)n1CCN1CCN(S(=O)(=O)c2ccccc2)CC1 [Cpd T0510-3387] | – | – | – | – | – | 1.126 | −0.9366 | 0.1436 | 0.1737 | 1 | – |
| O=C(CSc1nnc2ccccn12)N1CCc2ccccc2C1 [Cpd T0512-2617] | – | – | – | – | – | −1.3165 | 0.881 | 0.3066 | 0.3358 | 1 | 1 |
| Cc1cc(Nc2ccccc2)n(-c2ccccc2C(=O)O)n1 [Cpd T0513-3165] | – | – | – | – | – | 0.05393 | −1.233 | 0.4933 | 0.4517 | 1 | 1 |
| O=C1CC(NC(=O)c2ccc(Cl)cc2)C(=O)N1 (stereo not drawn) [Cpd T0513-4457] | – | – | – | – | – | 0.257 | 0.3998 | 0.4361 | 0.4132 | 1 | 1 |

Reference: US20240115557A1, “INHIBITORS OF RNA-GUIDED NUCLEASES AND USES THEREOF” (The Brigham and Women's Hospital, Inc., priority 2022, published 2024)
